US20080069785A1, “PEST-CONTROL COMPOSITIONS, AND METHODS AND PRODUCTS UTILIZING SAME” (priority 2004, published 2008)

System: cockroaches (Blattella germanica)
Assay: Weeklong surface area toxicity test on cockroaches (Example 19)
Assay type: in vivo
Experimental: In order determine the toxicity of the formulation to the insect after application to a surface over a period of time, the following test was performed. […] Cockroaches were placed in the cups on the first day following the application of the formulations, on the third day following the application of the formulations, and on the sixth day following the application of the formulations in order to monitor the toxicity of the formulations after a period of time had elapsed. The mortality of the cockroaches was then recorded at the time intervals noted. The five cockroaches placed in each cup were one week old cockroaches (Blattella germanica) which had been reared at twenty seven degrees centigrade, at sixty five percent relative humidity, and on a twelve hour light to dark photoperiod. Each of the cups had Fluon®AD1 treated sides to prevent the escape of the cockroaches.

**Q.** Which results are given for `CCCCCCCCCC(C)=O` [Undecanone, 2-Undecanone]?
**A.** cockroaches alive (of five per cup) (3-4 days treatment, 0.09 μL/cm^2 (5 μL), 23 h): 5; cockroaches alive (of five per cup) (3-4 days treatment, 0.09 μL/cm^2 (5 μL), 24 h): 5; cockroaches alive (of five per cup) (3-4 days treatment, 0.09 μL/cm^2 (5 μL), 27 h): 5; cockroaches alive (of five per cup) (3-4 days treatment, 0.09 μL/cm^2 (5 μL), 30 h): 5; cockroaches alive (of five per cup) (3-4 days treatment, 0.19 μL/cm^2 (10 μL), 5 min): 5; cockroaches alive (of five per cup) (3-4 days treatment, 0.19 μL/cm^2 (10 μL), 10 min): 5; cockroaches alive (of five per cup) (3-4 days treatment, 0.19 μL/cm^2 (10 μL), 15 min): 5; cockroaches alive (of five per cup) (3-4 days treatment, 0.19 μL/cm^2 (10 μL), 30 min): 5; cockroaches alive (of five per cup) (3-4 days treatment, 0.19 μL/cm^2 (10 μL), 60 min): 5; cockroaches alive (of five per cup) (3-4 days treatment, 0.19 μL/cm^2 (10 μL), 90 min): 5; cockroaches alive (of five per cup) (3-4 days treatment, 0.19 μL/cm^2 (10 μL), 2 h): 5; cockroaches alive (of five per cup) (3-4 days treatment, 0.19 μL/cm^2 (10 μL), 4 h): 5; cockroaches alive (of five per cup) (3-4 days treatment, 0.19 μL/cm^2 (10 μL), 23 h): 5; cockroaches alive (of five per cup) (3-4 days treatment, 0.19 μL/cm^2 (10 μL), 24 h): 5; cockroaches alive (of five per cup) (3-4 days treatment, 0.19 μL/cm^2 (10 μL), 27 h): 5; cockroaches alive (of five per cup) (3-4 days treatment, 0.19 μL/cm^2 (10 μL), 30 h): 5; cockroaches alive (of five per cup) (3-4 days treatment, 0.95 μL/cm^2 (50 μL), 5 min): 5; cockroaches alive (of five per cup) (3-4 days treatment, 0.95 μL/cm^2 (50 μL), 10 min): 5; cockroaches alive (of five per cup) (3-4 days treatment, 0.95 μL/cm^2 (50 μL), 15 min): 5; cockroaches alive (of five per cup) (3-4 days treatment, 0.95 μL/cm^2 (50 μL), 30 min): 5; cockroaches alive (of five per cup) (3-4 days treatment, 0.95 μL/cm^2 (50 μL), 60 min): 5; cockroaches alive (of five per cup) (3-4 days treatment, 0.95 μL/cm^2 (50 μL), 90 min): 5; cockroaches alive (of five per cup) (3-4 days treatment, 0.95 μL/cm^2 (50 μL), 2 h): 3; cockroaches alive (of five per cup) (3-4 days treatment, 0.95 μL/cm^2 (50 μL), 4 h): 2; cockroaches alive (of five per cup) (3-4 days treatment, 0.95 μL/cm^2 (50 μL), 23 h): 1; cockroaches alive (of five per cup) (3-4 days treatment, 0.95 μL/cm^2 (50 μL), 24 h): 1; cockroaches alive (of five per cup) (3-4 days treatment, 0.95 μL/cm^2 (50 μL), 27 h): 0; cockroaches alive (of five per cup) (3-4 days treatment, 0.95 μL/cm^2 (50 μL), 30 h): 0; cockroaches alive (of five per cup) (6-7 days treatment, 0.02 μL/cm^2 (1 μL), 5 min): 5; cockroaches alive (of five per cup) (6-7 days treatment, 0.02 μL/cm^2 (1 μL), 10 min): 5; cockroaches alive (of five per cup) (6-7 days treatment, 0.02 μL/cm^2 (1 μL), 15 min): 5; cockroaches alive (of five per cup) (6-7 days treatment, 0.02 μL/cm^2 (1 μL), 30 min): 5; cockroaches alive (of five per cup) (6-7 days treatment, 0.02 μL/cm^2 (1 μL), 60 min): 5; cockroaches alive (of five per cup) (6-7 days treatment, 0.02 μL/cm^2 (1 μL), 90 min): 5; cockroaches alive (of five per cup) (6-7 days treatment, 0.02 μL/cm^2 (1 μL), 2 h): 5; cockroaches alive (of five per cup) (6-7 days treatment, 0.02 μL/cm^2 (1 μL), 4 h): 5; cockroaches alive (of five per cup) (6-7 days treatment, 0.02 μL/cm^2 (1 μL), 21.5 h): 5; cockroaches alive (of five per cup) (6-7 days treatment, 0.02 μL/cm^2 (1 μL), 22 h): 5; cockroaches alive (of five per cup) (6-7 days treatment, 0.02 μL/cm^2 (1 μL), 23 h): 5; cockroaches alive (of five per cup) (6-7 days treatment, 0.02 μL/cm^2 (1 μL), 24 h): 5; cockroaches alive (of five per cup) (6-7 days treatment, 0.02 μL/cm^2 (1 μL), 27 h): 5; cockroaches alive (of five per cup) (6-7 days treatment, 0.02 μL/cm^2 (1 μL), 29 h): 5; cockroaches alive (of five per cup) (6-7 days treatment, 0.02 μL/cm^2 (1 μL), 30 h): 5; cockroaches alive (of five per cup) (6-7 days treatment, 0.02 μL/cm^2 (1 μL), 31 h): 5; cockroaches alive (of five per cup) (6-7 days treatment, 0.09 μL/cm^2 (5 μL), 5 min): 5; cockroaches alive (of five per cup) (6-7 days treatment, 0.09 μL/cm^2 (5 μL), 10 min): 5; cockroaches alive (of five per cup) (6-7 days treatment, 0.09 μL/cm^2 (5 μL), 15 min): 5; cockroaches alive (of five per cup) (6-7 days treatment, 0.09 μL/cm^2 (5 μL), 30 min): 5; cockroaches alive (of five per cup) (6-7 days treatment, 0.09 μL/cm^2 (5 μL), 60 min): 5; cockroaches alive (of five per cup) (6-7 days treatment, 0.09 μL/cm^2 (5 μL), 90 min): 5; cockroaches alive (of five per cup) (6-7 days treatment, 0.09 μL/cm^2 (5 μL), 2 h): 5; cockroaches alive (of five per cup) (6-7 days treatment, 0.09 μL/cm^2 (5 μL), 4 h): 5; cockroaches alive (of five per cup) (6-7 days treatment, 0.09 μL/cm^2 (5 μL), 21.5 h): 5; cockroaches alive (of five per cup) (6-7 days treatment, 0.09 μL/cm^2 (5 μL), 22 h): 5; cockroaches alive (of five per cup) (6-7 days treatment, 0.09 μL/cm^2 (5 μL), 23 h): 5; cockroaches alive (of five per cup) (6-7 days treatment, 0.09 μL/cm^2 (5 μL), 24 h): 5; cockroaches alive (of five per cup) (6-7 days treatment, 0.09 μL/cm^2 (5 μL), 27 h): 5; cockroaches alive (of five per cup) (6-7 days treatment, 0.09 μL/cm^2 (5 μL), 29 h): 5; cockroaches alive (of five per cup) (6-7 days treatment, 0.09 μL/cm^2 (5 μL), 30 h): 5; cockroaches alive (of five per cup) (6-7 days treatment, 0.09 μL/cm^2 (5 μL), 31 h): 5; cockroaches alive (of five per cup) (6-7 days treatment, 0.19 μL/cm^2 (10 μL), 5 min): 5; cockroaches alive (of five per cup) (6-7 days treatment, 0.19 μL/cm^2 (10 μL), 10 min): 5; cockroaches alive (of five per cup) (6-7 days treatment, 0.19 μL/cm^2 (10 μL), 15 min): 5; cockroaches alive (of five per cup) (6-7 days treatment, 0.19 μL/cm^2 (10 μL), 30 min): 5; cockroaches alive (of five per cup) (6-7 days treatment, 0.19 μL/cm^2 (10 μL), 60 min): 5; cockroaches alive (of five per cup) (6-7 days treatment, 0.19 μL/cm^2 (10 μL), 90 min): 5; cockroaches alive (of five per cup) (6-7 days treatment, 0.19 μL/cm^2 (10 μL), 2 h): 5; cockroaches alive (of five per cup) (6-7 days treatment, 0.19 μL/cm^2 (10 μL), 4 h): 5; cockroaches alive (of five per cup) (6-7 days treatment, 0.19 μL/cm^2 (10 μL), 21.5 h): 5; cockroaches alive (of five per cup) (6-7 days treatment, 0.19 μL/cm^2 (10 μL), 22 h): 5; cockroaches alive (of five per cup) (6-7 days treatment, 0.19 μL/cm^2 (10 μL), 23 h): 5; cockroaches alive (of five per cup) (6-7 days treatment, 0.19 μL/cm^2 (10 μL), 24 h): 5; cockroaches alive (of five per cup) (6-7 days treatment, 0.19 μL/cm^2 (10 μL), 27 h): 5; cockroaches alive (of five per cup) (6-7 days treatment, 0.19 μL/cm^2 (10 μL), 29 h): 5; cockroaches alive (of five per cup) (6-7 days treatment, 0.19 μL/cm^2 (10 μL), 30 h): 5; cockroaches alive (of five per cup) (6-7 days treatment, 0.19 μL/cm^2 (10 μL), 31 h): 5; cockroaches alive (of five per cup) (6-7 days treatment, 0.95 μL/cm^2 (50 μL), 21.5 h): 2; cockroaches alive (of five per cup) (6-7 days treatment, 0.95 μL/cm^2 (50 μL), 22 h): 2; cockroaches alive (of five per cup) (6-7 days treatment, 0.95 μL/cm^2 (50 μL), 23 h): 2; cockroaches alive (of five per cup) (6-7 days treatment, 0.95 μL/cm^2 (50 μL), 24 h): 2
